Results from ChEMBL document CHEMBL1201862, “PubChem BioAssay data set” (2004).
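Growth conditions: 96-well plates. Treatment: test compound, 48 hours, 5 concentrations. Analysis: linear interpolation between bracketing concentrations; unreached endpoints set to highest concentration. GI50 is the concentration that inhibits growth by half.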 Active and inactive are the calls of the source. Rule as the data show it: active = GI50 up to about 1.1 µM and inactive = higher.

Assays:
Assay in all cases: NCI-60 cell line screen, 48 h
[1] = tested on: OVCAR-8
[2] = tested on: SF-295
[3] = tested on: SK-MEL-5
[4] = tested on: HOP-18
[5] = tested on: HT-29
[6] = tested on: CCRF-CEM
[7] = tested on: SK-MEL-28
[8] = tested on: UO-31
[9] = tested on: TK-10
[10] = tested on: SK-MEL-2
[11] = tested on: NCI-H226
[12] = tested on: HOP-92
[13] = tested on: HL-60
[14] = tested on: HCT-116
[15] = tested on: OVCAR-4
[16] = tested on: COLO 205
[17] = tested on: MDA-N
[18] = tested on: DU-145
[19] = tested on: NCI/ADR-RES
[20] = tested on: Hs-578T

Structure (SMILES) | GI50 [1] | GI50 [2] | GI50 [3] | GI50 [4] | GI50 [5] | GI50 [6] | GI50 [7] | GI50 [8] | GI50 [9] | GI50 [10] | GI50 [11] | GI50 [12] | GI50 [13] | GI50 [14] | GI50 [15] | GI50 [16] | GI50 [17] | GI50 [18] | GI50 [19] | GI50 [20]
COC(=O)Cc1cc(=O)[nH]c2c1C(=O)CCC2 | > 100 µM (inactive) | > 100 µM (inactive) | > 100 µM (inactive) | > 100 µM (inactive) | > 100 µM (inactive) | > 100 µM (inactive) | > 100 µM (inactive) | > 100 µM (inactive) | > 100 µM (inactive) | > 100 µM (inactive) | > 100 µM (inactive) | > 100 µM (inactive) | > 100 µM (inactive) |  |  |  |  |  |  | 
N#Cc1c(NN)nc(NN)c(C#N)c1-c1ccccc1 | > 100 µM (inactive) | > 100 µM (inactive) | > 100 µM (inactive) | > 100 µM (inactive) | > 100 µM (inactive) | > 100 µM (inactive) | > 100 µM (inactive) | > 100 µM (inactive) | > 100 µM (inactive) | > 100 µM (inactive) | 52.8 µM (inactive) | > 100 µM (inactive) | > 100 µM (inactive) | > 100 µM (inactive) | > 100 µM (inactive) | > 100 µM (inactive) |  |  |  | 
O=S(=O)(O)CS(=O)(=O)OCCCl | > 100 µM (inactive) | > 100 µM (inactive) | > 100 µM (inactive) | 81.8 µM (inactive) | > 100 µM (inactive) |  | > 100 µM (inactive) | > 100 µM (inactive) | > 100 µM (inactive) |  | > 100 µM (inactive) | > 100 µM (inactive) | > 100 µM (inactive) | > 100 µM (inactive) | > 100 µM (inactive) | > 100 µM (inactive) |  |  |  | 
COC1/C(=C\C(C)=O)c2ccccc2N1C(C)=O (configuration not stated) | > 100 µM (inactive) | > 100 µM (inactive) |  | > 100 µM (inactive) | > 100 µM (inactive) | > 100 µM (inactive) | > 100 µM (inactive) | > 100 µM (inactive) |  | > 100 µM (inactive) |  | > 100 µM (inactive) | > 100 µM (inactive) | > 100 µM (inactive) | > 100 µM (inactive) | > 100 µM (inactive) |  |  |  | 
c1ccc2c(CNCCCN3CCN(CCCNCc4cccc5ccccc45)CC3)cccc2c1 | 1.77 µM (inactive) | 1.77 µM (inactive) | 1.74 µM (inactive) | 6.21 µM (inactive) | 1.65 µM (inactive) | 1.24 µM (inactive) | 1.69 µM (inactive) | 1.82 µM (inactive) | 1.5 µM (inactive) | 1.65 µM (inactive) | 2.81 µM (inactive) | 1.74 µM (inactive) | 1.44 µM (inactive) | 1.51 µM (inactive) | 2.21 µM (inactive) | 2.06 µM (inactive) |  |  |  | 
CC(=O)CC(=O)CCCC(=O)Nc1ccc(Cl)cc1C | > 100 µM (inactive) | > 100 µM (inactive) | > 100 µM (inactive) | > 100 µM (inactive) | > 100 µM (inactive) | > 100 µM (inactive) |  | > 100 µM (inactive) | > 100 µM (inactive) | > 100 µM (inactive) | > 100 µM (inactive) | > 100 µM (inactive) | > 100 µM (inactive) | > 100 µM (inactive) | > 100 µM (inactive) | > 100 µM (inactive) |  |  |  | 
S=c1sc2c(n1-c1ccccc1)N=CNC2S (configuration not stated) | > 100 µM (inactive) | 84.7 µM (inactive) | 57 µM (inactive) | 28.8 µM (inactive) | > 100 µM (inactive) | 46.2 µM (inactive) | > 100 µM (inactive) | 37.3 µM (inactive) | > 100 µM (inactive) | > 100 µM (inactive) | 44.6 µM (inactive) | 25.9 µM (inactive) | 71.6 µM (inactive) | 98.4 µM (inactive) | > 100 µM (inactive) | > 100 µM (inactive) |  |  |  | 
COc1ccc2c(c1)[n+]([O-])c(C(N)=O)c(N)[n+]2[O-] | 95.3 µM (inactive) | > 100 µM (inactive) | 40.1 µM (inactive) | > 100 µM (inactive) | 61.9 µM (inactive) |  | > 100 µM (inactive) | > 100 µM (inactive) |  | > 100 µM (inactive) | > 100 µM (inactive) | > 100 µM (inactive) | 40.8 µM (inactive) | > 100 µM (inactive) | > 100 µM (inactive) | 24.4 µM (inactive) |  |  |  | 
O=[N+]([O-])c1cc2c(cc1O)[nH]c1cccc([N+](=O)[O-])c12 | > 100 µM (inactive) | > 100 µM (inactive) | 40.7 µM (inactive) | 33.9 µM (inactive) | > 100 µM (inactive) | > 100 µM (inactive) | > 100 µM (inactive) | > 100 µM (inactive) | > 100 µM (inactive) | > 100 µM (inactive) | > 100 µM (inactive) |  | > 100 µM (inactive) | > 100 µM (inactive) | > 100 µM (inactive) | > 100 µM (inactive) |  |  |  | 
COc1ccc(Br)c(CCCCC(=O)O)c1 | > 100 µM (inactive) | > 100 µM (inactive) | > 100 µM (inactive) | > 100 µM (inactive) | > 100 µM (inactive) | > 100 µM (inactive) | > 100 µM (inactive) |  | > 100 µM (inactive) |  |  | 2.89 µM (inactive) | > 100 µM (inactive) | > 100 µM (inactive) | > 100 µM (inactive) | > 100 µM (inactive) |  |  |  | 
Cc1ccc(C(=O)O/N=C2/CCCCC2CN(C)C)cc1 (configuration not stated) | > 100 µM (inactive) | > 100 µM (inactive) | > 100 µM (inactive) | > 100 µM (inactive) | > 100 µM (inactive) | > 100 µM (inactive) | > 100 µM (inactive) | > 100 µM (inactive) | > 100 µM (inactive) | > 100 µM (inactive) | > 100 µM (inactive) | > 100 µM (inactive) | > 100 µM (inactive) | > 100 µM (inactive) | > 100 µM (inactive) | > 100 µM (inactive) |  |  |  | 
CSc1cnc2ccccc2c1Sc1c[nH]c2ccccc2c1=O | 14 µM (inactive) | 7.59 µM (inactive) | 6.25 µM (inactive) | 14.9 µM (inactive) | 3.72 µM (inactive) | 4.52 µM (inactive) | 11.1 µM (inactive) | 14 µM (inactive) | 36 µM (inactive) | 10.4 µM (inactive) | 7.31 µM (inactive) | 8.39 µM (inactive) | 3.3 µM (inactive) | 9.48 µM (inactive) | 14.1 µM (inactive) | 6.24 µM (inactive) |  |  |  | 
[O-][n+]1onc2c3nn(-c4ccccc4)nc3ccc21 | > 91.4 µM (inactive) | > 100 µM (inactive) | > 100 µM (inactive) |  | 35.2 µM (inactive) | 25.6 µM (inactive) | > 100 µM (inactive) | > 100 µM (inactive) | > 71.1 µM (inactive) | > 100 µM (inactive) | > 100 µM (inactive) | > 100 µM (inactive) | 2.35 µM (inactive) | > 100 µM (inactive) | > 100 µM (inactive) | 61.8 µM (inactive) | > 100 µM (inactive) | 17.8 µM (inactive) | > 100 µM (inactive) | 32.1 µM (inactive)
C=C1c2nc3ccccc3n2C=C(c2ccc(C)cc2)N1c1ccc(C)cc1 | 18.9 µM (inactive) | 50.9 µM (inactive) | 19.8 µM (inactive) |  | 37.9 µM (inactive) | 33 µM (inactive) | > 100 µM (inactive) | 46 µM (inactive) | > 100 µM (inactive) | 47.5 µM (inactive) | 7.08 µM (inactive) | 68.5 µM (inactive) | 10.5 µM (inactive) | 43.7 µM (inactive) | 69.5 µM (inactive) | 28.8 µM (inactive) | 20.6 µM (inactive) | > 83.4 µM (inactive) | 17.9 µM (inactive) | > 100 µM (inactive)
Clc1ccc(CSCCc2ccncc2)cc1Cl | 19.7 µM (inactive) | 17.5 µM (inactive) | 16.3 µM (inactive) |  | 15.7 µM (inactive) | 20.6 µM (inactive) | 22.7 µM (inactive) | 21 µM (inactive) | 42.9 µM (inactive) | 15.8 µM (inactive) | 22 µM (inactive) | 13.1 µM (inactive) | 17 µM (inactive) | 15.8 µM (inactive) | 23.1 µM (inactive) | 14.2 µM (inactive) | 20.2 µM (inactive) | 29.2 µM (inactive) | 19.7 µM (inactive) | 23.4 µM (inactive)
COc1ccc(/C(Cl)=C/c2ccc(Cl)c(Cl)c2)cc1 | 29.1 µM (inactive) | 23.7 µM (inactive) | 18 µM (inactive) | 16.5 µM (inactive) | 18.3 µM (inactive) | 21.9 µM (inactive) | 38.2 µM (inactive) | 26.5 µM (inactive) |  |  | 14.9 µM (inactive) | 30.1 µM (inactive) | 17.3 µM (inactive) | 22.7 µM (inactive) | 41.5 µM (inactive) | 22.1 µM (inactive) |  |  |  | 
COc1ccc(Cc2c(=O)[nH]nc3ccccc23)cc1 | 90.6 µM (inactive) | > 100 µM (inactive) | 35.2 µM (inactive) | > 100 µM (inactive) | > 100 µM (inactive) | > 100 µM (inactive) | > 100 µM (inactive) | 43.8 µM (inactive) | > 100 µM (inactive) | > 100 µM (inactive) | 85.7 µM (inactive) | > 100 µM (inactive) |  | > 100 µM (inactive) | > 100 µM (inactive) | > 100 µM (inactive) |  |  |  | 
COc1cc2c(cc1OC)C(=O)/C(=C/c1ccccc1)CC2 | 45.5 µM (inactive) | 20.7 µM (inactive) | 17.1 µM (inactive) |  | 17.9 µM (inactive) | 5.83 µM (inactive) | 64.9 µM (inactive) | > 100 µM (inactive) | 33.4 µM (inactive) | 14.1 µM (inactive) | 41.4 µM (inactive) | 24.8 µM (inactive) | 0.0426 µM (active) | 23.8 µM (inactive) | 62.4 µM (inactive) | 22.1 µM (inactive) | 12.4 µM (inactive) | 83.2 µM (inactive) | 17.3 µM (inactive) | > 100 µM (inactive)
